# Test results: ChEMBL document CHEMBL1127986, “Synthesis and Biological Evaluation of New Leukotriene Analogs” (Bioorg Med Chem Lett, 1994)
# The source made the active and inactive calls. No cut-off for these calls is given here.
# Key:
# [1] = biological target: T1, Polyunsaturated fatty acid 5-lipoxygenase (Homo sapiens, UniProt P09917); test: Inhibition of 5-lipoxygenase was evaluated in human polymorphonuclear leukocytes stimulated by calcium ionophore A-23187 for formation of 5-HETE; NA means Not active; assay type: cell-based
# T1 sequence (P09917 whole entry): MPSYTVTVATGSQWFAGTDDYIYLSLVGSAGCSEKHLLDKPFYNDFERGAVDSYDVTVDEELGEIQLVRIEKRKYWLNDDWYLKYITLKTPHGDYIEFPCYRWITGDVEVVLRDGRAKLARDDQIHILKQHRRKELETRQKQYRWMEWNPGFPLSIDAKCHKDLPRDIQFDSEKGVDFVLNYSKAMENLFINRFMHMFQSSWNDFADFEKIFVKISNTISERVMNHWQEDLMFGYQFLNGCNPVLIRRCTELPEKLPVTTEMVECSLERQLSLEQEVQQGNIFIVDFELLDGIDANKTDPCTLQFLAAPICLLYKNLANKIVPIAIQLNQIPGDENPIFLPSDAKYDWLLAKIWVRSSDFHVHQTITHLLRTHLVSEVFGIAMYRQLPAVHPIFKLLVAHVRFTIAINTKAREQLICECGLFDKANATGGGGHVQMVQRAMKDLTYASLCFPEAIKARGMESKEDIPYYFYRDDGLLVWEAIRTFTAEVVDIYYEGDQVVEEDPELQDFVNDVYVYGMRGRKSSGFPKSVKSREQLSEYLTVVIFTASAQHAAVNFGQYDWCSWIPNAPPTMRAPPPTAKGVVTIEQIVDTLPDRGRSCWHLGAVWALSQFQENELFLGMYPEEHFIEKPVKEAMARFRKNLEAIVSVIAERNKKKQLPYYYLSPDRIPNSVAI
# [2] = biological target: T2, Arachidonate 12-lipoxygenase (Rattus norvegicus) (UniProt Q02759); test: Inhibition of 12-lipoxygenase was evaluated in rat platelets stimulated by thrombin up to a concentration of 10 uM; NE means No effect
# T2 sequence (whole entry): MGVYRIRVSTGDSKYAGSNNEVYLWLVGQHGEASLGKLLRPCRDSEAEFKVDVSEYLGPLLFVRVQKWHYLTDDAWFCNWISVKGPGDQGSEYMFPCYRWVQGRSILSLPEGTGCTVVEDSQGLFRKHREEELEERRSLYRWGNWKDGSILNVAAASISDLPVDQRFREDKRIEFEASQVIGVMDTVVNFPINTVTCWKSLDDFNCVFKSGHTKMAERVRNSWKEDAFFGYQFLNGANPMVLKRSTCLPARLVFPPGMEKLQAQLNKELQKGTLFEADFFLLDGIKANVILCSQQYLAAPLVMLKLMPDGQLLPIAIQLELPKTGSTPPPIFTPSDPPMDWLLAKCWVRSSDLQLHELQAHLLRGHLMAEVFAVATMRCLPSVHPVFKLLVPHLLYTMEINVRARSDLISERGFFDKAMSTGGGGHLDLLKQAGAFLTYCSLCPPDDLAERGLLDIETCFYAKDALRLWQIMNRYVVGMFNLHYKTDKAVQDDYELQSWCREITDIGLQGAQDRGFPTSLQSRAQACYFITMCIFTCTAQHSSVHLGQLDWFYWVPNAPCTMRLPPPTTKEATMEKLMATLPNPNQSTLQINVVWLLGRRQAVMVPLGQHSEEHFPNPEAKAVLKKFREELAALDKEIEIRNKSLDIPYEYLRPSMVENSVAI
# [3] = biological target: T1, Polyunsaturated fatty acid 5-lipoxygenase; test: Inhibition of 5-lipoxygenase was evaluated in human polymorphonuclear leukocytes stimulated by calcium ionophore A-23187 for formation of LTB4; NA means Not active; assay type: cell-based
# [4] = biological target: Cyclooxygenase (Rattus norvegicus) (UniProt P35355+Q63921); test: Inhibition of cyclooxygenase was evaluated in rat platelets stimulated by thrombin up to a concentration of 10 uM; NE means No effect
# [5] = biological target: T3, Polyunsaturated fatty acid 5-lipoxygenase (Homo sapiens) (UniProt P09917); test: Inhibition of 5-lipoxygenase was evaluated in human polymorphonuclear leukocytes stimulated by calcium ionophore A-23187 for formation of LTB4 at 10 uM; NA means Inactive; assay type: cell-based
# T3 sequence (whole entry): T1 sequence (P09917 whole entry)
# [6] = biological target: T3, Polyunsaturated fatty acid 5-lipoxygenase (Homo sapiens); test: Inhibition of 5-lipoxygenase was evaluated in human polymorphonuclear leukocytes stimulated by calcium ionophore A-23187 for formation of 5-HETE at 10 uM; NA means Inactive; assay type: cell-based
# [7] = biological target: T3, Polyunsaturated fatty acid 5-lipoxygenase (Homo sapiens); test: Inhibition of 5-lipoxygenase was evaluated in human polymorphonuclear leukocytes stimulated by calcium ionophore A-23187 for formation of LTB4 at 10 uM; assay type: cell-based
# [8] = biological target: T3, Polyunsaturated fatty acid 5-lipoxygenase (Homo sapiens); test: Inhibition of 5-lipoxygenase was evaluated in human polymorphonuclear leukocytes stimulated by calcium ionophore A-23187 for formation of 5-HETE at 10 uM; assay type: cell-based
# [9] = biological target: T1, Polyunsaturated fatty acid 5-lipoxygenase; test: Inhibition of 5-lipoxygenase was evaluated in human polymorphonuclear leukocytes stimulated by calcium ionophore A-23187 for formation of 5-HETE; assay type: cell-based
# [10] = biological target: T1, Polyunsaturated fatty acid 5-lipoxygenase; test: Inhibition of 5-lipoxygenase was evaluated in human polymorphonuclear leukocytes stimulated by calcium ionophore A-23187 for formation of LTB4; assay type: cell-based
Compound,IC50 [1],Activity [2],IC50 [3],Activity [4],inhibition [7],inhibition [8],further results
CCCCC/C=C\C\C=C/C=C/C=C/[C@@H](O)CCC/C=N/O,Not Active,inactive,Not Active,inactive,,,
CCCCC/C=C\Cc1ccc(/C=C/C(O)CCC/C=N\O)cc1 (centres undefined),,inactive,,inactive,,,inhibition [5]: inactive; inhibition [6]: inactive
CCCCC/C=C\C\C=C/C=C/C=C/C(O)CC/C=N\O (centres undefined),,inactive,,inactive,95%,95%,
CCCCCCCC\C=C/C=C/C=C/C(O)CCC/C=N/O (centres undefined),Not Active,,Not Active,,,,
CCCCC/C=C\C\C=C/C=C/C=C/C(O)CCC/C=N/OC (centres undefined),,inactive,,inactive,95%,95%,
CCCCC/C=C\C/C=C\C=C\C(O)CCC/C=N/O (centres undefined),,,,,60%,< 40%,
CCCCC/C=C\C\C=C/C=C/C=C/C(CCC/C=N/O)OC (centres undefined),Not Active,inactive,Not Active,inactive,,,

# The next lines start with results.
IC50 [1],Activity [2],IC50 [3],Activity [4],inhibition [7],inhibition [8],Compound,further results
,inactive,,inactive,,,CCCCC/C=C\C\C=C/C=C/C=C/C(O)CCC/C=N/O (racemic),IC50 [9]: 5.4 µM; IC50 [10]: 4.4 µM
,inactive,,inactive,,,CCCCC/C=C\C\C=C/C=C/C=C/[C@H](O)CCC/C=N/O,IC50 [9]: 2.8 µM; IC50 [10]: 3.3 µM
,,,,95%,95%,CCCCC/C=C\C\C=C/C=C/C=C/C(O)CCCCC (centres undefined),
